Test results reported in article PMC5734728, “The JAK2/STAT3 inhibitor pacritinib effectively inhibits patient-derived GBM brain tumor initiating cells in vitro and when used in combination with temozolomide increases survival in an orthotopic xenograft model” (PLoS ONE, 2017).
Like-named read-outs stand apart in the source and are kept apart here.

Key:
[1] = in vitro; type: in vitro ADME, mouse; conditions: male, CD-1, mouse
Experimental: (§1) Working stocks were initially diluted to a concentration of 40 μM in 0.1 M potassium phosphate buffer before addition to the reaction vials. Pooled mouse (CD-1, male) or human (50 donors) liver microsomes were utilized at a final concentration of 0.5 mg/mL. Duplicate wells were used for each time point (0 and 30 minutes). Reactions were carried out at 37°C in a shaker, and the final concentration of DMSO was kept constant at 0.01%. The final volume for each reaction was 100 μL, which included the addition of an NADPH-Regeneration solution (NRS) mix. The NRS mix was comprised of glucose 6-phosphate dehydrogenase (0.4 U/mL), NADP+ (1.3 mM), MgCl2 (3.3 mM), and glucose 6-phosphate (3.3 mM) in assay mixtures. Upon completion of the 30-minute time point, reactions were terminated by the addition of 1.5-volumes (150 μL) of ice-cold acetonitrile with 0.5% formic acid and internal standard. Samples were then centrifuged at 4,000 rpm for 10 minutes to remove debris and precipitated protein. Approximately 150 μL of supernatant was subsequently transferred to a new 96-well microplate for LC-MS analysis. Narrow-window mass extraction LC-MS analysis was performed for all samples using a Waters Xevo quadrupole time-of-flight (QToF) mass spectrometer and an ACQUITY UPLC system, to determine relative peak areas of parent compound.

[2] = mouse liver microsomes; usual value of control compound; cited from earlier work
[3] = tested on: p-STAT3 Y705; test: western blotting of activated STAT3 in BTICs; type: cell-based, human; conditions: BT53, 48 hours; 1 μM pacritinib, 10 μg/mL TMZ or both
Experimental: BTIC spheres were enzymatically dissociated as described above and plated at 10^6 cells/2 mL of media. Cells were treated with vehicle (DMSO), pacritinib, TMZ, or a combination of pacritinib and TMZ and pelleted at select time points (3, 24, and 48 hours). For protein extraction, BTICs were lysed in modified radio-immunoprecipitation assay buffer supplemented with Complete Mini protease (Roche) and Halt phosphatase (Thermo Scientific) inhibitor cocktails. Protein concentrations were quantified using the BioRad protein assay; 20 μg of protein were loaded on 6% or 10% sodium dodecyl sulfate polyacrylamide gel electrophoresis (SDS PAGE) gels and transblotted to nitrocellulose membranes. Blots were stained with primary antibodies followed by horseradish peroxidase-conjugated secondary antibodies. Primary antibodies included p-STAT3 Y705 (1:1000; Cell Signaling Technology), STAT3 (1:1000; Cell Signaling Technology), p-Akt S473 (1:1000; Cell Signaling Technology), Akt (1:1000; Cell Signaling Technology), p-p44/42 MAPK (T202/Y204) (1:1000; Cell Signaling Technology), p44/42 MAPK (1:4000; Cell Signaling Technology), poly (ADP-ribose) polymerase (1:1000; Cell Signaling Technology), β-tubulin (1:1000; Cell Signaling Technology), and Actin (1:1000; Santa Cruz Biotechnology). Secondary antibodies included donkey anti-mouse (1:5000; Cell Signaling Technology), donkey anti-goat (1:5000; Millipore), and goat anti-rabbit (1:5000; Cell Signaling Technology). The blots were washed with tris-buffered saline and tween 20 (T-TBS) (50mM Tris, 150mM NaCl, 0.05% Tween 20, pH 7.6) and blocked with tris-buffered saline (TBS) before imaging. Bands were visualized with the SuperSignal West Pico chemiluminescent solution (Thermo Scientific) and an Amersham™ Imager 600 (General Electric).

[4] = tested on: BT53 orthotopic xenograft; test: Kaplan-Meier survival, orthotopic BT53 xenograft; type: in vivo, mice; conditions: BT53; combination p < 0.0023, TMZ alone p < 0.0229, log-rank
Experimental: For Kaplan-Meier survival studies, BTIC spheres from BT53 or BT147 were dissociated to a single-cell suspension. Mice were anaesthetized using 10 mg/kg ketamine/xylazine. Buprenorphine (0.05 mg/kg) was administered once pre-operatively and once post-operatively to minimize animal suffering. 5 x 10^4 cells were stereotactically implanted into the right striata of 8- to 10-week-old female severe combined immunodeficient (SCID) mice, as previously described and approved by the University of Calgary Health Sciences Animal Care Committee, accredited by CCAC. Mice were randomized to vehicle or treatment cohorts, with a minimum of 8 mice per group, one week after cell implantation. For BT147, vehicle (Ora-Plus; Galenova), pacritinib (100 mg/kg), TMZ (30 mg/kg), or a combination of pacritinib (100 mg/kg) and TMZ (30 mg/kg), were administered via oral gavage. Animals completed a five-week regimen of three weekly treatments for a total of 15 treatments. For BT53, 100 mg/kg of pacritinib was administered twice per day alone or in combination with 50 mg/kg TMZ once per day, for one week via oral gavage. Following this, mice received 100 mg/kg pacritinib twice per day in combination with 10 mg/kg TMZ once per day for two weeks. […] The body weights were closely monitored throughout the course of the experiment. […]

[5] = tested on: BT147 orthotopic xenograft; test: Kaplan-Meier survival, orthotopic BT147 xenograft; type: in vivo; conditions: BT147 xenografted mice; pacritinib 100 mg/kg, TMZ 30 mg/kg, oral, thrice weekly for five weeks; control 52 days
Experimental: For Kaplan-Meier survival studies, BTIC spheres from BT53 or BT147 were dissociated to a single-cell suspension. Mice were anaesthetized using 10 mg/kg ketamine/xylazine. Buprenorphine (0.05 mg/kg) was administered once pre-operatively and once post-operatively to minimize animal suffering. 5 x 10^4 cells were stereotactically implanted into the right striata of 8- to 10-week-old female severe combined immunodeficient (SCID) mice, as previously described and approved by the University of Calgary Health Sciences Animal Care Committee, accredited by CCAC. Mice were randomized to vehicle or treatment cohorts, with a minimum of 8 mice per group, one week after cell implantation. For BT147, vehicle (Ora-Plus; Galenova), pacritinib (100 mg/kg), TMZ (30 mg/kg), or a combination of pacritinib (100 mg/kg) and TMZ (30 mg/kg), were administered via oral gavage. Animals completed a five-week regimen of three weekly treatments for a total of 15 treatments. For BT53, 100 mg/kg of pacritinib was administered twice per day alone or in combination with 50 mg/kg TMZ once per day, for one week via oral gavage. Following this, mice received 100 mg/kg pacritinib twice per day in combination with 10 mg/kg TMZ once per day for two weeks. Mice were euthanized with a lethal dose of sodium pentobarbital at a pre-defined humane endpoint. Specific criteria for the endpoint included: 20% weight loss, lack of grooming, inactivity, hind limb paralysis, and/or inability to eat or drink. The body weights were closely monitored throughout the course of the experiment. […] The presence of tumor was confirmed in the mice via necropsy and cranial dissection.

[6] = tested on: patient-derived GBM BTIC cultures; test: alamarBlue viability assay, panel of BTIC cultures; conditions: 10 μg/mL TMZ
Experimental: Accumax (eBioscience) was used to enzymatically dissociate BTIC spheres to single cells. Cells were seeded at 1000 cells per well in 96-well plates and treated with vehicle (DMSO) or drug, 24 hours after plating. BTIC viability was assessed after 7–14 days, once spheres were formed in control wells, by performing the alamarBlue™ (Invitrogen) assay per the manufacturer’s instructions. In brief, the alamar dye was added to each well and plates were read 6 hours later. Fluorescence intensity (excitation 540 nm; emission 590 nm) was measured on a SpectraMax M Series Multi-Mode Microplate reader. […] All experiments were performed in triplicate with a minimum of 3 wells per condition.
BTICs were treated with suboptimal doses of 1 μM pacritinib (CTI Biopharma), 10 μg/mL TMZ (Sigma), or a combination of pacritinib and TMZ. […] Percent inhibition was determined by normalizing each well to the control well (0.1% DMSO).

[7] = human liver microsomal stability assay; type: in vitro ADME; conditions: human liver microsomes, 30-minute incubation, 1 μM
Experimental: as §1

[8] = human liver microsomes; usual value of control compound; cited from earlier work

In the case of `Cc1cc(=O)n(-c2ccccc2)n1C` [Antipyrine], the remaining at 0.5 h, 1 μM ([1]; microsomes, % Remaining) is given as 96.5% and the “Usual value (% remaining)” value [2] is given as “Usual value: >90%”.

For `Cn1nnc2c(C(N)=O)ncn2c1=O` [TMZ, temozolomide], the “p-STAT3 Y705” value [3] was “dramatic increase in p-STAT3 Y705”, the “survival advantage over the control, combination study” value [4] was “significant survival advantage over the control arm” and the median survival [5] was 58 days. The “sensitivity of MGMT unmethylated BTIC cultures” value ([6]; representative BT12) was “largely resistant to TMZ” and the “sensitivity of MGMT methylated BTIC cultures” value ([6]; representative BT67 and BT69) was “highly sensitive to TMZ”.

For `COc1ccc2c(c1)[C@]13CCCC[C@@H]1[C@H](C2)N(C)CC3` [DXM], the “% Remaining” value [7] is given as 75.0% and the “Usual value (% remaining)” value [8] is given as “Usual value: 72 ± 10%”.

For `CC(C)NCC(O)COc1cccc2ccccc12` (centres unmarked) [Propranolol], the remaining at 0.5 h, 1 μM ([1]; liver microsomes, mouse liver microsomes, 30-minute incubation, 1 μM, read-out: % Remaining) is given as 9.6% and the “Usual value (% remaining)” value [2] is given as “Usual value: <20%”.
